# Measurements as given in PubChem BioAssay (NCI).
#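 Where inhibition never reached the appropriate level, the endpoint shown equals the highest concentration tested. Otherwise, values were interpolated linearly from a five-concentration, 48-hour dose response in 96-well plates. TGI is the concentration that stops growth completely.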
# Assays:
# Test in all cases: growth of human tumour cells (NCI), 48 h
# [1] = test system: 786-0 renal
# [2] = test system: A549 NSCLC
# [3] = test system: ACHN renal
# [4] = test system: BT-549 breast
# [5] = test system: CAKI-1 renal
# [6] = test system: COLO 205 colon
# [7] = test system: DU-145 prostate
# [8] = test system: EKVX NSCLC
# [9] = test system: HCC-2998 colon
# [10] = test system: HCT-116 colon
# [11] = test system: HCT-15 colon
# [12] = test system: HL-60(TB) leukemia
# [13] = test system: HOP-62 NSCLC
# [14] = test system: HOP-92 NSCLC
# [15] = test system: HS 578T breast
# [16] = test system: HT29 colon
# [17] = test system: IGROV1 ovarian
# [18] = test system: K-562 leukemia
# [19] = test system: KM12 colon
# [20] = test system: LOX IMVI melanoma
# [21] = test system: M14 melanoma
# [22] = test system: MALME-3M melanoma
# [23] = test system: MCF7 breast
# [24] = test system: MDA-MB-231 breast
# [25] = test system: MDA-MB-435
# [26] = test system: MDA-N
# [27] = test system: MOLT-4 leukemia
# [28] = test system: NCI-H226 lung
# [29] = test system: NCI-H23 lung
# [30] = test system: NCI-H460 lung
# [31] = test system: NCI-H522 lung
# [32] = test system: NCI/ADR-RES ovarian
# [33] = test system: OVCAR-3 ovarian
# [34] = test system: OVCAR-4 ovarian
# [35] = test system: OVCAR-5 ovarian
# [36] = test system: OVCAR-8 ovarian
# [37] = test system: PC-3 prostate
# [38] = test system: RPMI-8226 leukemia
# [39] = test system: RXF 393 renal
# [40] = test system: SF-268 CNS
# [41] = test system: SF-295 CNS
# [42] = test system: SF-539 CNS
# [43] = test system: SK-MEL-28 melanoma
# [44] = test system: SK-MEL-5 melanoma
# [45] = test system: SK-OV-3 ovarian
# [46] = test system: SNB-19 CNS
# [47] = test system: SNB-75 CNS
# [48] = test system: SR leukemia
# [49] = test system: SW-620 colon
# [50] = test system: T-47D breast
# [51] = test system: TK-10 renal
# [52] = test system: U251 CNS
# [53] = test system: UACC-62 melanoma
# [54] = test system: UO-31 renal
# [55] = test system: A498 renal
# [56] = test system: CCRF-CEM leukemia
# [57] = test system: SK-MEL-2 melanoma
# [58] = test system: SN12C renal
# [59] = test system: UACC-257 melanoma
smiles,measurement,setting,value
COc1ccc(-c2cc(-c3ccccc3)n(C3OC(COC(C)=O)C(OC(C)=O)C(OC(C)=O)C3OC(C)=O)c(=S)c2C#N)cc1 (configuration not stated),TGI,[1],12.4 µM
same,TGI,[2],39.3 µM
same,TGI,[3],29.7 µM
same,TGI,[4],34.9 µM
same,TGI,[5],19 µM
same,TGI,[6],23.4 µM
same,TGI,[7],23.9 µM
same,TGI,[8],31.9 µM
same,TGI,[9],> 100 µM
same,TGI,[10],19.2 µM
same,TGI,[11],> 100 µM
same,TGI,[12],13.4 µM
same,TGI,[13],14.4 µM
same,TGI,[14],15.5 µM
same,TGI,[15],23.5 µM
same,TGI,[16],18.7 µM
same,TGI,[17],32 µM
same,TGI,[18],> 100 µM
same,TGI,[19],44.7 µM
same,TGI,[20],> 100 µM
same,TGI,[21],20.5 µM
same,TGI,[22],23.2 µM
same,TGI,[23],> 100 µM
same,TGI,[24],16.4 µM
same,TGI,[25],19.4 µM
same,TGI,[26],25.5 µM
same,TGI,[27],> 100 µM
same,TGI,[28],23.1 µM
same,TGI,[29],47.7 µM
same,TGI,[30],22.2 µM
same,TGI,[31],18.5 µM
same,TGI,[32],50.5 µM
same,TGI,[33],23.5 µM
same,TGI,[34],8.06 µM
same,TGI,[35],29.2 µM
same,TGI,[36],19.7 µM
same,TGI,[37],32.3 µM
same,TGI,[38],16.7 µM
same,TGI,[39],23.2 µM
same,TGI,[40],58.2 µM
same,TGI,[41],17.9 µM
same,TGI,[42],14.4 µM
same,TGI,[43],25.1 µM
same,TGI,[44],19.4 µM
same,TGI,[45],32.9 µM
same,TGI,[46],23.1 µM
same,TGI,[47],19.2 µM
same,TGI,[48],37.5 µM
same,TGI,[49],> 100 µM
same,TGI,[50],25.7 µM
same,TGI,[51],40.7 µM
same,TGI,[52],18.7 µM
same,TGI,[53],16.4 µM
same,TGI,[54],21.3 µM
C/C(Cl)=N\OC(=O)Nc1ccc([N+](=O)[O-])cc1,TGI,[1],18.4 µM
same,TGI,[55],30.5 µM
same,TGI,[2],47.5 µM
same,TGI,[3],9.2 µM
same,TGI,[4],66.7 µM
same,TGI,[5],9.79 µM
same,TGI,[56],> 100 µM
same,TGI,[6],5.85 µM
same,TGI,[7],31.8 µM
same,TGI,[8],35.2 µM
same,TGI,[9],29.8 µM
same,TGI,[10],22.2 µM
same,TGI,[11],34.2 µM
same,TGI,[12],4.09 µM
same,TGI,[13],> 100 µM
same,TGI,[14],5.65 µM
same,TGI,[15],72.5 µM
same,TGI,[16],38.7 µM
same,TGI,[17],38.5 µM
same,TGI,[18],4.22 µM
same,TGI,[19],36.2 µM
same,TGI,[20],9.93 µM
same,TGI,[21],26.1 µM
same,TGI,[22],7.95 µM
same,TGI,[23],5.73 µM
same,TGI,[24],37.1 µM
same,TGI,[25],32.9 µM
same,TGI,[26],25.1 µM
same,TGI,[27],3.97 µM
same,TGI,[28],> 100 µM
same,TGI,[29],49.9 µM
same,TGI,[30],38.8 µM
same,TGI,[31],3.75 µM
same,TGI,[32],29.3 µM
same,TGI,[33],6.1 µM
same,TGI,[34],28.2 µM
same,TGI,[35],30.8 µM
same,TGI,[36],32.2 µM
same,TGI,[37],29.9 µM
same,TGI,[39],30.4 µM
same,TGI,[40],41.8 µM
same,TGI,[41],31.8 µM
same,TGI,[42],31.8 µM
same,TGI,[57],32.5 µM
same,TGI,[43],31.5 µM
same,TGI,[44],31.2 µM
same,TGI,[45],> 32.6 µM
same,TGI,[58],35.1 µM
same,TGI,[46],33.1 µM
same,TGI,[47],31.4 µM
same,TGI,[48],74.2 µM
same,TGI,[49],4.06 µM
same,TGI,[50],36.8 µM
same,TGI,[51],27.8 µM
same,TGI,[52],33.8 µM
same,TGI,[59],30.9 µM
same,TGI,[53],48.6 µM
same,TGI,[54],11.4 µM
